Consider two molecules from US20220170029A1, “APPLICATION OF NAT1 GENE AS SCREENING MARKER IN GENETIC TRANSFORMATION OF OOMYCETE” (priority 2021, published 2022).

In assay [1] the test system is Phytophthora sojae. Conditions: oomycete carrying encoding gene of mutated protein; cited from earlier work.
For assay [2], the system named is wide-type Phytophthora sojae. The experiment in a line: Growth on nourseothricin-containing V8 culture medium, control strain. It counts as cell-based. Conditions: 50 μg/mL nourseothricin, grows on V8 medium without nourseothricin. The procedure: (§1) The 15 candidate transformants screened in Example 1 were transformed to the 50 μg/mL nourseothricin-containing V8 culture medium to observe the growth condition of the 15 candidate transformants, and the wide-type Phytophthora sojae is used as a control strain.

Assay [3] concerns Avh109 gene complemented transformants of Phytophthora sojae (Nat1 gene as selection marker). The experiment in a line: Growth on nourseothricin-containing V8 culture medium, candidate transformants carrying the Nat1 gene. Conditions: 50 μg/mL nourseothricin; 15 candidate transformants with Nat1 gene. Format: cell-based. How it is done: (S2) After the centrifugation, the supernatant was discarded. Then 5 mL of PM culture medium were added into the centrifuge tube to resuspend the regenerated hypha. After that, 5 mL of 30 μg/mL nourseothricin-containing PM culture medium were added into the centrifuge tube, and mixed to be poured into a petri dish. Then the petri dish was subjected to drying, and culturing at 25° C. in dark for 3-4 days to perform primary screening.
(S3) The growth condition of hyphae on the surface of the petri dish was observed. 10 mL of 50 μg/mL nourseothricin-containing V8 culture medium were added into the petri dish, and cultured at 25° C. in the dark for 3-4 days to perform secondary screening.
(S4) The growth condition of hyphae on the surface of the petri dish was observed. The regenerated strain was transferred to the 50 μg/mL nourseothricin-containing V8 culture medium to perform tertiary screening. After three screenings in the presence of nourseothricin, 15 transformants were obtained, which were preliminarily considered to be complemented transformants (candidate transformants) for subsequent identification.
as §1

For `Cc1cc(C(F)(F)F)nn1CC(=O)N1CCC(c2nc(C3=NOC(c4c(F)cccc4F)C3)cs2)CC1` (stereo not drawn) [oxathiapiprolin], the “resistance to oxathiapiprolin induced in the oomycete by the mutated protein” value in assay [1] is recorded as “more than 500 times”.

nourseothricin: the “growth condition on nourseothricin-containing V8 medium” value in assay [2] was “not able to grow”; in assay [3] it was “able to grow normally”.
